Assay results from the supplement of paper PMC10307832.

How the values were obtained:
Test in all cases: relative viability (nuclei count vs DMSO), 5 days (fraction); higher = more cells survive
GW-2580 + Trametinib = compound: COC1=CC=C(C=C1)COC2=C(C=C(C=C2)CC3=CN=C(N=C3N)N)OC [GW-2580] + CC(=O)Nc1cccc(-n2c(=O)n(C3CC3)c(=O)c3c(Nc4ccc(I)cc4F)n(C)c(=O)c(C)c32)c1 [Trametinib] (partner 0.02 µM)
Method in brief: (§1)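 Lung cancer cell lines in 1536-well plates were dosed by pin tool the day after seeding, either with one drug alone or with a fixed anchor-drug dose plus five library-drug doses (not always all listed) in √10 steps. After 5 days, cells were fixed and their nuclei stained in one step (final 0.05% Triton X-100, 1% formaldehyde, 1 ug/ml Hoechst), then counted on 4× images. Relative viability is the nuclei count in treated wells divided by that in vehicle wells. Values are medians of duplicate plates.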

GW-2580 + Alpelisib = compound: COC1=CC=C(C=C1)COC2=C(C=C(C=C2)CC3=CN=C(N=C3N)N)OC [GW-2580] + Cc1nc(NC(=O)N2CCC[C@H]2C(N)=O)sc1-c1ccnc(C(C)(C)C(F)(F)F)c1 [Alpelisib] (partner 2 µM)
Method in brief: as §1

GW-2580 + Phenformin = compound: COC1=CC=C(C=C1)COC2=C(C=C(C=C2)CC3=CN=C(N=C3N)N)OC [GW-2580] + N=C(N)NC(=N)NCCc1ccccc1 [Phenformin] (partner 250 µM)
Method in brief: as §1

Fedratinib + Bortezomib = compound: Cc1cnc(Nc2ccc(OCCN3CCCC3)cc2)nc1Nc1cccc(S(=O)(=O)NC(C)(C)C)c1 [Fedratinib] + CC(C)C[C@H](NC(=O)[C@H](Cc1ccccc1)NC(=O)c1cnccn1)B(O)O [Bortezomib] (partner 0.002 µM)
Method in brief: as §1

Fedratinib + Vorinostat = compound: Cc1cnc(Nc2ccc(OCCN3CCCC3)cc2)nc1Nc1cccc(S(=O)(=O)NC(C)(C)C)c1 [Fedratinib] + O=C(CCCCCCC(=O)Nc1ccccc1)NO [Vorinostat] (partner 1 µM)
Method in brief: as §1

Cell Line	relative viability (GW-2580 + Trametinib; first compound 0.08 µM)	relative viability (GW-2580 + Trametinib; first compound 0.8 µM)	relative viability (GW-2580 + Trametinib; first compound 2.53 µM)	relative viability (GW-2580 + Trametinib; first compound 8 µM)	relative viability (GW-2580 + Alpelisib; first compound 0.08 µM)	relative viability (GW-2580 + Alpelisib; first compound 0.8 µM)	relative viability (GW-2580 + Alpelisib; first compound 2.53 µM)	relative viability (GW-2580 + Alpelisib; first compound 8 µM)	relative viability (GW-2580 + Phenformin; first compound 0.08 µM)	relative viability (GW-2580 + Phenformin; first compound 0.8 µM)	relative viability (GW-2580 + Phenformin; first compound 2.53 µM)	relative viability (GW-2580 + Phenformin; first compound 8 µM)	relative viability (Fedratinib + Bortezomib; first compound 0.1 µM)	relative viability (Fedratinib + Bortezomib; first compound 0.3162 µM)	relative viability (Fedratinib + Bortezomib; first compound 1 µM)	relative viability (Fedratinib + Vorinostat; first compound 0.1 µM)	relative viability (Fedratinib + Vorinostat; first compound 0.3162 µM)	relative viability (Fedratinib + Vorinostat; first compound 1 µM)
HCC-827	0.555	0.552	0.483	0.568	1.15	0.923	0.902	0.915	0.451	0.442	0.436	0.447	1.09	1.03	1.03	0.862	0.841	0.75
HOP-62	0.406	0.412	0.359	0.378	0.914	1.01	0.694	1.07	0.758	0.744	0.637	0.655	1.01	0.92	0.785	0.64	0.605	0.594
IA-LM	–	–	–	–	1.11	0.725	0.656	0.883	–	–	–	–	0.747	0.784	0.642	0.901	0.95	0.979
LC-2-ad	0.883	0.995	0.923	0.816	0.934	0.932	0.875	0.87	0.595	0.674	0.634	0.682	1.04	0.96	0.0819	0.582	0.804	0.705
LCLC-97TM1	0.189	0.196	0.192	0.196	0.233	–	0.189	0.226	0.443	0.469	0.438	0.454	0.636	0.527	0.228	0.74	0.669	0.456
LCLC-103H	0.725	0.716	0.64	0.637	0.928	1.11	0.961	0.954	0.345	0.328	0.331	0.376	0.801	0.997	0.897	0.768	0.752	0.718
LK-2	0.918	0.933	0.686	0.904	1.21	1.21	0.849	1.38	0.37	0.544	0.318	0.391	–	–	–	0.37	0.242	0.303
NCI-H358	0.149	0.139	0.131	0.132	0.967	0.872	0.851	0.775	0.365	0.518	0.36	0.353	–	–	–	0.656	0.654	0.634
NCI-H522	0.804	0.673	0.656	0.753	–	–	–	–	0.659	0.638	0.959	0.754	–	–	–	0.703	0.82	0.895
NCI-H1299	–	–	–	–	1.2	1.04	1.04	1.07	–	–	–	–	1.05	1.02	1.01	–	–	–
NCI-H1395	0.975	0.969	0.988	1.08	1.04	0.941	1.03	1.01	0.452	0.484	0.421	0.438	–	–	–	0.588	0.807	0.561
NCI-H1563	–	–	–	–	0.989	1.05	0.853	0.869	0.69	0.679	0.647	0.637	0.699	0.939	0.631	–	–	–
NCI-H1623	–	–	–	–	–	–	–	–	0.566	0.587	0.463	0.566	–	–	–	–	–	–
NCI-H1648	0.416	–	0.405	0.439	–	–	–	–	–	–	–	–	–	–	–	0.291	0.36	0.616
NCI-H1650	0.623	0.533	0.579	0.599	–	–	–	–	0.516	0.461	0.372	0.536	0.199	0.221	0.193	0.433	0.581	0.605
NCI-H1703	–	–	–	–	0.308	0.334	0.323	0.331	–	–	–	–	0.244	0.341	0.24	–	–	–
NCI-H1792	0.49	0.502	0.388	0.337	0.552	0.809	0.288	0.907	0.4	0.226	0.146	0.313	1.14	0.994	0.887	–	–	–
NCI-H1793	0.467	0.425	0.344	0.464	0.659	0.679	0.634	0.775	0.4	0.259	0.314	0.286	–	–	–	0.749	0.621	0.515
NCI-H1944	0.463	0.387	0.336	0.377	0.826	0.94	0.828	0.759	0.198	0.201	0.169	0.189	–	–	–	0.668	0.571	0.516
NCI-H2170	0.994	1.01	0.924	0.857	0.892	0.842	0.741	0.902	0.442	0.345	0.37	0.336	–	–	–	0.886	0.776	0.654
NCI-H2342	0.805	0.889	0.783	0.83	–	–	–	–	0.57	0.725	0.509	0.567	–	–	–	0.94	0.71	0.926
SK-MES-1	0.585	0.491	0.522	0.503	1.15	0.907	0.94	0.885	0.748	0.608	0.515	0.528	–	–	–	1.08	1.09	0.976
SW 900	0.711	0.785	0.759	0.896	–	–	–	–	0.856	0.632	0.472	0.633	–	–	–	0.344	0.377	0.462
